Results from patent US20130237444A1, “GBM MOLECULAR CONTEXTS ASSOCIATED WITH PATIENT SURVIVAL” (Translational Genomics Research Institute, priority 2012, published 2013).

How the values were obtained:
[1] = system: Proneural-mapped xenografts; experiment: Survival of drug-treated GBM mouse xenografts vs control, Proneural-mapped; assay type: in vivo; details: Proneural subtype, total 2 xenografts; for frequency of xenograft models with survival difference NS (statistically Not Significant): Cox regression; for frequency of xenograft models with significantly longer survival than control (treatment-sensitive) / frequency of xenograft models with significantly shorter survival than control (treatment-resistant): Cox regression p-value threshold 0.05
Method: (§1) Forty GBM mouse xenografts were used. […] These xenografts were also mapped to the four molecular subtypes: proneural, neural, classical, and mesenchymal.
(§2) Characterizing drug responsiveness for GBM subtypes using the mapped xenografts: Out of 40 xenograft models, 21 models were treated with 4 different treatments and their survival rates were compared against control groups.

[2] = system: Classical-mapped xenograft models; experiment: Survival of drug-treated GBM mouse xenografts vs control, Classical-mapped; details: for frequency of xenograft models with survival difference NS (statistically Not Significant) / frequency of xenograft models with significantly longer survival than control (treatment-sensitive) / frequency of xenograft models with significantly shorter survival than control (treatment-resistant): Classical subtype, total 2 xenografts; for frequency of xenograft models with survival difference NS (statistically Not Significant): Cox regression; for frequency of xenograft models with significantly longer survival than control (treatment-sensitive) / frequency of xenograft models with significantly shorter survival than control (treatment-resistant): Cox regression p-value threshold 0.05
Method: as §1, §2

[3] = system: Mesenchymal-mapped xenograft models; experiment: Survival of drug-treated GBM mouse xenografts vs control, Mesenchymal-mapped; details: for frequency of xenograft models with survival difference NS (statistically Not Significant) / frequency of xenograft models with significantly longer survival than control (treatment-sensitive) / frequency of xenograft models with significantly shorter survival than control (treatment-resistant): Mesenchymal subtype, total 4 xenografts; for frequency of xenograft models with survival difference NS (statistically Not Significant): Cox regression; for frequency of xenograft models with significantly longer survival than control (treatment-sensitive) / frequency of xenograft models with significantly shorter survival than control (treatment-resistant): Cox regression p-value threshold 0.05; for subtype-specific drug response (sensitivity or resistance): Mesenchymal-mapped xenograft models, survival analysis
Method: as §1, §2

[4] = system: Neural-mapped xenograft models; experiment: Survival of drug-treated GBM mouse xenografts vs control, Neural-mapped; assay type: in vivo; details: Neural subtype, total 3 xenografts; for frequency of xenograft models with survival difference NS (statistically Not Significant): Cox regression; for frequency of xenograft models with significantly longer survival than control (treatment-sensitive) / frequency of xenograft models with significantly shorter survival than control (treatment-resistant): Cox regression p-value threshold 0.05
Method: as §1, §2

Cn1c(=O)n(-c2ccc(C(C)(C)C#N)cc2)c2c3cc(-c4cnc5ccccc5c4)ccc3ncc21 [BEZ235]
1: frequency of xenograft models with survival difference NS (statistically Not Significant) [1] | frequency of xenograft models with significantly longer survival than control (treatment-sensitive) [1] | frequency of xenograft models with significantly shorter survival than control (treatment-resistant) [3]
0: frequency of xenograft models with significantly shorter survival than control (treatment-resistant) [1] | frequency of xenograft models with significantly longer survival than control (treatment-sensitive) [2] | frequency of xenograft models with significantly shorter survival than control (treatment-resistant) [2] | frequency of xenograft models with significantly longer survival than control (treatment-sensitive) [3] | frequency of xenograft models with significantly longer survival than control (treatment-sensitive) [4] | frequency of xenograft models with significantly shorter survival than control (treatment-resistant) [4]
2: frequency of xenograft models with survival difference NS (statistically Not Significant) [2]
resistance: subtype-specific drug response (sensitivity or resistance) [3]
3: frequency of xenograft models with survival difference NS (statistically Not Significant) [3] | frequency of xenograft models with survival difference NS (statistically Not Significant) [4]

CNC(=O)c1cc(Oc2ccc(NC(=O)Nc3ccc(Cl)c(C(F)(F)F)c3)cc2)ccn1 [Sorafenib, sorafenib]
1: frequency of xenograft models with survival difference NS (statistically Not Significant) [1] | frequency of xenograft models with significantly longer survival than control (treatment-sensitive) [1] | frequency of xenograft models with survival difference NS (statistically Not Significant) [2] | frequency of xenograft models with significantly shorter survival than control (treatment-resistant) [2] | frequency of xenograft models with survival difference NS (statistically Not Significant) [3] | frequency of xenograft models with significantly longer survival than control (treatment-sensitive) [3]
2: frequency of xenograft models with significantly shorter survival than control (treatment-resistant) [3]
3: frequency of xenograft models with survival difference NS (statistically Not Significant) [4]
0: frequency of xenograft models with significantly shorter survival than control (treatment-resistant) [1] | frequency of xenograft models with significantly longer survival than control (treatment-sensitive) [2] | frequency of xenograft models with significantly longer survival than control (treatment-sensitive) [4] | frequency of xenograft models with significantly shorter survival than control (treatment-resistant) [4]
resistance: subtype-specific drug response (sensitivity or resistance) ([2]; Classical-mapped xenograft models, survival analysis) | subtype-specific drug response (sensitivity or resistance) [3]

Cn1nnc2c(C(N)=O)ncn2c1=O [TMZ, temozolomide]
0: frequency of xenograft models with significantly shorter survival than control (treatment-resistant) [1] | frequency of xenograft models with significantly shorter survival than control (treatment-resistant) [2] | frequency of xenograft models with significantly shorter survival than control (treatment-resistant) [3] | frequency of xenograft models with significantly shorter survival than control (treatment-resistant) [4]
1: frequency of xenograft models with survival difference NS (statistically Not Significant) [1] | frequency of xenograft models with significantly longer survival than control (treatment-sensitive) [1] | frequency of xenograft models with survival difference NS (statistically Not Significant) [2] | frequency of xenograft models with significantly longer survival than control (treatment-sensitive) [2] | frequency of xenograft models with significantly longer survival than control (treatment-sensitive) [4]
2: frequency of xenograft models with survival difference NS (statistically Not Significant) [3] | frequency of xenograft models with significantly longer survival than control (treatment-sensitive) [3] | frequency of xenograft models with survival difference NS (statistically Not Significant) [4]
